What was measured:
Format in all cases: in vivo
[1] = tested on: TRITICUM AESTIVUM, CV. APOLLO; assay: Preemergence herbicidal evaluation, TRZAWO (Wheat, Winter, CV. APOLLO); details: rated four to five weeks after treatment
Description: (§1) Results of herbicide evaluation are expressed on a rating scale (0-9). The scale is based upon a visual observation of plant stand, vigor, malformation, size, chlorosis and overall plant appearance as compared with a control.
(§2) The preemergence herbicidal activity of the test compounds of the present invention is exemplified by the following tests in which the seeds of a variety of monocotyledonous and dicotyledonous plants are separately mixed with potting soil and planted on top of approximately one inch of soil in separate pint cups. […] The treated cups are then placed on greenhouse benches, watered and cared for in accordance with conventional greenhouse procedures. From four to five weeks after treatment, the tests are terminated and each cup is examined and rated according to the rating system provided in Example 40.
(§3) The compounds evaluated are reported by compound number given in Example 40.

[2] = tested on: AMBROSIA ARTEMISIIFOLIA, L.; assay: Preemergence herbicidal evaluation, AMBEL (Ragweed, Common); details: rated four to five weeks after treatment
Description: as §1, §2, §3

[3] = tested on: ORYZA SATIVA, L. TEBONNET; assay: Rice tolerance to post-transplant applications under flooded paddy conditions, ORYSAT (Rice, Tebonnet); details: post-transplant rice, 3-4 weeks after treatment
Procedure, shortened: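 Two ten-day-old Tebonnet rice seedlings were transplanted into silt loam and kept flooded 1.5 to 3 cm deep. Three days after transplanting, the flood surface received the compound in aqueous/acetone 50/50 v/v at about 0.5, 0.25, 0.125 or 0.063 kg/ha. Injury was rated visually on a 0-9 scale versus control after 3-4 weeks.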

[4] = tested on: SAGITTARIA PYGMAEA, L.; assay: Preemergence weed control under flooded paddy conditions, SAGPY (Arrowhead (Pygmaea)); details: preemergence, 3-4 weeks after treatment
Procedure, shortened: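 Seeds or propagules sown in top 0.5 cm of silt loam in undrained containers, flooded 1.5 to 3 cm throughout. Compounds in aqueous/acetone 50/50 v/v pipetted into flood water at about 0.5, 0.25, 0.125 and 0.063 kg/ha. Visual 0-9 rating versus control after three to four weeks in greenhouse.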

[5] = tested on: ABUTILON THEOPHRASTI, MEDIC.; assay: Preemergence herbicidal evaluation, ABUTH (Velvetleaf); details: rated four to five weeks after treatment
Description: as §1, §2, §3

[6] = tested on: ECHINOCHLOA CRUS-GALLI, (L) BEAU; assay: Preemergence herbicidal evaluation, ECHCG (Barnyardgrass); details: rated four to five weeks after treatment
Procedure, shortened: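 Barnyardgrass seeds were mixed with potting soil and planted on about one inch of soil in pint cups for preemergence testing. Treated cups were kept on greenhouse benches, watered and maintained by standard greenhouse practice. After four to five weeks, each cup was visually rated on a 0-9 scale against an untreated control.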

[7] = tested on: CHENOPODIUM ALBUM, L.; assay: Preemergence herbicidal evaluation, CHEAL (Lambsquarters, Common); details: rated four to five weeks after treatment
Procedure, shortened: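 Rated 0-9 by visual comparison with control (stand, vigor, malformation, size, chlorosis, overall appearance) four to five weeks after preemergence soil spray. Dose equivalent to about 0.125 to 0.50 kg per hectare, applied in aqueous acetone to freshly seeded cups kept in greenhouse.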

[8] = tested on: IPOMOEA SPP.; assay: Postemergence herbicidal evaluation, IPOSS (Morningglory spp.)
Procedure, shortened: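 Seedlings of morningglory (Ipomoea spp.) were raised in jiffy flats for roughly two weeks. They were then sprayed postemergence through a nozzle at 40 psi with test compound dispersed in 50/50 acetone/water containing 0.5% TWEEN®20 surfactant. Plants were kept on greenhouse benches under standard care and visually rated 0-9 against controls four to five weeks after treatment.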

[9] = tested on: TRITICUM AESTIVUM, CV. APOLLO; assay: Postemergence herbicidal evaluation, TRZAWO (Wheat, Winter, CV. APOLLO)
Experimental: In the tests, seedling plants are grown in jiffy flats for about two weeks. The test compounds are dispersed in 50/50 acetone/water mixtures containing 0.5% TWEEN®20, a polyoxyethylene sorbitan monolaurate surfactant of Atlas Chemical Industries, […] through a spray nozzle operating at 40 psi for a predetermined time. After spraying, the plants are placed on greenhouse benches and are cared for in the usual manner, commensurate with conventional greenhouse practices. From four to five weeks after treatment, the seedling plants are examined and rated according to the rating system set forth below. Where more than one test is involved for a given compound, the data are averaged.
(§4) Plant species employed in these evaluations are reported by header abbreviation, common name and scientific name.
as §1

[10] = tested on: AMBROSIA ARTEMISIIFOLIA, L.; assay: Postemergence herbicidal evaluation, AMBEL (Ragweed, Common)
Procedure, shortened: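 Common ragweed (Ambrosia artemisiifolia) seedlings were raised in jiffy flats for roughly two weeks, then sprayed postemergence through a nozzle at 40 psi with the test compound dispersed in 50/50 acetone/water carrying 0.5% TWEEN®20. The plants were kept on greenhouse benches under conventional care. Four to five weeks later, injury was rated visually on a 0-9 scale, and repeat tests were averaged.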

[11] = tested on: CASSIA OBTUSIFOLIA, L.; assay: Preemergence herbicidal evaluation, CASOB (Sicklepod); details: rated four to five weeks after treatment
Procedure, shortened: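 Seeds of various monocot and dicot plants, including sicklepod, were each mixed with potting soil and sown on roughly one inch of soil in separate pint cups for preemergence testing. Treated cups were kept on greenhouse benches, watered and maintained conventionally. Four to five weeks after treatment, each cup was visually rated on a 0-9 scale against a control.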

[12] = tested on: SETARIA VIRIDIS, (L) BEAU; assay: Postemergence herbicidal evaluation, SETVI (Foxtail, Green); set-up: key to SETVI rating / Herbicidal effect rating, SETVI / SETVI: 0-9 visual rating scale vs untreated control
Procedure, shortened: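 Two-week-old seedlings sprayed with compound in 50/50 acetone/water plus 0.5% TWEEN 20 at about 0.125–0.500 kg/ha via nozzle at 40 psi. Kept in greenhouse; rated visually 4–5 weeks after treatment on a 0–9 scale versus untreated control, averaging repeat tests.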

[13] = tested on: IPOMOEA SPP.; assay: Preemergence herbicidal evaluation, IPOSS (Morningglory spp.); details: rated four to five weeks after treatment
Description: as §1, §2, §3

[14] = tested on: ZEA MAYS L.; assay: Postemergence herbicidal evaluation, ZEAMX (Corn, Field)
Experimental: In the tests, seedling plants are grown in jiffy flats for about two weeks. The test compounds are dispersed in 50/50 acetone/water mixtures containing 0.5% TWEEN®20, a polyoxyethylene sorbitan monolaurate surfactant of Atlas Chemical Industries, […] to the plants through a spray nozzle operating at 40 psi for a predetermined time. After spraying, the plants are placed on greenhouse benches and are cared for in the usual manner, commensurate with conventional greenhouse practices. From four to five weeks after treatment, the seedling plants are examined and rated according to the rating system set forth below. Where more than one test is involved for a given compound, the data are averaged.
as §4, §1

[15] = tested on: CHENOPODIUM ALBUM, L.; assay: Postemergence herbicidal evaluation, CHEAL (Lambsquarters, Common)
Procedure, shortened: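 Seedlings of common lambsquarters (Chenopodium album) were raised in jiffy flats for roughly two weeks, then sprayed postemergence through a nozzle at 40 psi with test compound dispersed in 50/50 acetone/water containing 0.5% TWEEN®20 surfactant. Plants were kept on greenhouse benches under standard care and rated visually on a 0-9 scale versus controls.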

[16] = tested on: ABUTILON THEOPHRASTI, MEDIC.; assay: Postemergence herbicidal evaluation, ABUTH (Velvetleaf)
Procedure, shortened: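 Velvetleaf (Abutilon theophrasti) seedlings were raised in jiffy flats for about two weeks and then sprayed postemergence. The test compound was dispersed in a 50/50 acetone/water mixture containing 0.5% TWEEN®20 and applied through a nozzle operating at 40 psi. Plants were kept on greenhouse benches and rated 0-9 four to five weeks after treatment.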

[17] = tested on: CASSIA OBTUSIFOLIA, L.; assay: Postemergence herbicidal evaluation, CASOB (Sicklepod); set-up: key to CASOB rating / Herbicidal effect rating, CASOB / CASOB: 0-9 visual rating scale vs untreated control
Procedure, shortened: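 Seedlings about two weeks old were sprayed with compound in 50/50 acetone/water containing 0.5% Tween 20 at about 0.125-0.500 kg/ha and kept in the greenhouse. Visual injury was rated on a 0-9 scale versus control 4-5 weeks after treatment; repeat tests were averaged.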

[18] = tested on: ZEA MAYS L.; assay: Preemergence herbicidal evaluation, ZEAMX (Corn, Field); details: rated four to five weeks after treatment
Procedure, shortened: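 Corn (Zea mays) seeds were mixed with potting soil and planted on about one inch of soil in pint cups, then treated preemergence. Cups were kept on greenhouse benches, watered and maintained conventionally, and after four to five weeks were visually rated on a 0-9 scale versus an untreated control.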

Cn1c(=O)n(CC(=O)OC(C)(C)C)c(=O)n(-c2cc(Oc3c(F)cc(C(F)(F)F)cc3Cl)ccc2F)c1=O [Compound 41, Tert-butyl 3-{[5-(2-chloro-α,α,α,6-tetra-fluoro-p-tolyl)oxy]-2-fluorophenyl}tetra-hydro-5-methyl-2,4,6-trioxo-s-triazine-1(2H)-acetate]
9.0: CHEAL herbicidal rating ([7]; Rate 0.125 kg/ha) | CHEAL herbicidal rating ([7]; Rate 0.250 kg/ha) | CHEAL herbicidal rating ([7]; Rate 0.500 kg/ha)
0.0: TRZAWO herbicidal rating ([1]; Rate 0.125 kg/ha) | TRZAWO herbicidal rating ([1]; Rate 0.250 kg/ha) | TRZAWO herbicidal rating ([1]; Rate 0.500 kg/ha) | AMBEL herbicidal rating ([2]; Rate 0.125 kg/ha) | AMBEL herbicidal rating ([2]; Rate 0.250 kg/ha) | AMBEL herbicidal rating ([2]; Rate 0.500 kg/ha) | Herbicidal effect rating, ORYSAT ([3]; 0.063 kg/ha) | Herbicidal effect rating, ORYSAT ([3]; 0.125 kg/ha) | Herbicidal effect rating, ORYSAT ([3]; 0.250 kg/ha) | Herbicidal effect rating, ORYSAT ([3]; 0.500 kg/ha) | Herbicidal effect rating, SAGPY ([4]; 0.063 kg/ha) | Herbicidal effect rating, SAGPY ([4]; 0.125 kg/ha) | Herbicidal effect rating, SAGPY ([4]; 0.250 kg/ha) | Herbicidal effect rating, SAGPY ([4]; 0.500 kg/ha) | ABUTH herbicidal rating ([5]; Rate 0.125 kg/ha) | ABUTH herbicidal rating ([5]; Rate 0.250 kg/ha) | ABUTH herbicidal rating ([5]; Rate 0.500 kg/ha) | ECHCG herbicidal rating ([6]; Rate 0.125 kg/ha) | ECHCG herbicidal rating ([6]; Rate 0.250 kg/ha) | ECHCG herbicidal rating ([6]; Rate 0.500 kg/ha)

COC(=O)Cn1c(=O)n(C)c(=O)n(-c2cc(Oc3ncc(C(F)(F)F)cc3Cl)ccc2Br)c1=O [Compound 45]
0.0: AMBEL herbicidal rating ([2]; Rate 0.125 kg/ha) | AMBEL herbicidal rating ([2]; Rate 0.250 kg/ha) | AMBEL herbicidal rating ([2]; Rate 0.500 kg/ha) | CASOB herbicidal rating ([11]; Rate 0.125 kg/ha) | CASOB herbicidal rating ([11]; Rate 0.250 kg/ha) | CASOB herbicidal rating ([11]; Rate 0.500 kg/ha) | IPOSS herbicidal rating ([13]; Rate 0.125 kg/ha) | IPOSS herbicidal rating ([13]; Rate 0.250 kg/ha) | IPOSS herbicidal rating ([13]; Rate 0.500 kg/ha) | ZEAMX herbicidal rating ([18]; Rate 0.125 kg/ha) | ZEAMX herbicidal rating ([18]; Rate 0.250 kg/ha) | ZEAMX herbicidal rating ([18]; Rate 0.500 kg/ha)
6.0: Herbicidal effect rating, ORYSAT ([3]; 0.500 kg/ha)
9.0: IPOSS rating ([8]; Rate 0.125 kg/ha) | IPOSS rating ([8]; Rate 0.250 kg/ha) | IPOSS rating ([8]; Rate 0.500 kg/ha) | TRZAWO rating ([9]; Rate 0.125 kg/ha) | TRZAWO rating ([9]; Rate 0.250 kg/ha) | TRZAWO rating ([9]; Rate 0.500 kg/ha) | AMBEL rating ([10]; Rate 0.125 kg/ha) | AMBEL rating ([10]; Rate 0.250 kg/ha) | AMBEL rating ([10]; Rate 0.500 kg/ha) | SETVI rating ([12]; Rate 0.125 kg/ha) | SETVI rating ([12]; Rate 0.250 kg/ha) | SETVI rating ([12]; Rate 0.500 kg/ha) | ZEAMX rating ([14]; Rate 0.125 kg/ha) | ZEAMX rating ([14]; Rate 0.250 kg/ha) | ZEAMX rating ([14]; Rate 0.500 kg/ha) | CHEAL rating ([15]; Rate 0.125 kg/ha) | CHEAL rating ([15]; Rate 0.250 kg/ha) | CHEAL rating ([15]; Rate 0.500 kg/ha) | ABUTH rating ([16]; Rate 0.125 kg/ha) | ABUTH rating ([16]; Rate 0.250 kg/ha) | ABUTH rating ([16]; Rate 0.500 kg/ha) | CASOB rating ([17]; Rate 0.125 kg/ha) | CASOB rating ([17]; Rate 0.250 kg/ha) | CASOB rating ([17]; Rate 0.500 kg/ha) | CHEAL herbicidal rating ([7]; Rate 0.125 kg/ha) | CHEAL herbicidal rating ([7]; Rate 0.250 kg/ha) | CHEAL herbicidal rating ([7]; Rate 0.500 kg/ha)
2.0: Herbicidal effect rating, ORYSAT ([3]; 0.063 kg/ha) | Herbicidal effect rating, ORYSAT ([3]; 0.125 kg/ha)
4.0: Herbicidal effect rating, ORYSAT ([3]; 0.250 kg/ha)

From patent EP0745595A1, “3-(3-Aryloxyphenyl)-1-(substituted methyl)-s-triazine-2,4,6-oxo or thiotrione herbicidal agents” (American Cyanamid Company, priority 1995, dated 1996)
